Experimental data as given in the NIST ThermoML archive (doi:10.1016/j.jct.2013.03.004).
± gives the expanded uncertainty stated by the source.

Conditions: 101 kPa, Liquid mixture 1, Drop volume

`Cc1ccccc1` [toluene] + O showed an interfacial tension (293.2 K) of 37.2 ± 0.3 mN/m, an interfacial tension (298.2 K) of 36.3 ± 0.3 mN/m and an interfacial tension (303.2 K) of 35.7 ± 0.3 mN/m. For the same molecule, the interfacial tension (308.2 K) was 35.2 ± 0.3 mN/m and the interfacial tension (313.2 K) was 34.7 ± 0.3 mN/m.
